From patent US12521448B2, “Preparation of solid cyclodextrin complexes for ophthalmic active pharmaceutical ingredient delivery” (Oculis Operations Sarl, priority 2016, dated 2026) come the findings set out here.

A short description of series [1]: Degradation on heating of drug suspensions in aqueous γ-cyclodextrin solutions (autoclave vs 95° C.). The series is classed as physicochemical. Particulars: autoclaving with γ-cyclodextrin.
Description: Diclofenac is suspended in aqueous solutions containing from 1% (w/v) to 15% (w/v) γ-cyclodextrin.
Series [2] is described as follows: Dehydration of dexamethasone to 16,17-unsaturated dexamethasone and dexamethasone enol aldehydes during preparation/autoclaving of eye drops. The series is classed as physicochemical. Particulars: aqueous eye drops. As to the method:
The dehydration of dexamethasone during preparation of the aqueous dexamethasone eye drops described in Example 1 (formulations F1, F2, F3, F4, F5 and F6) is determined by quantitative determination of 16,17-unsaturated dexamethasone and the dexamethasone enol aldehydes in the eye drops after manufacturing. Formulations F12, F13 and F14 are prepared as described in F1, that is by dissolving or suspending the ingredients, including dexamethasone, in pure water and autoclaving the mixture in sealed vial at 121° C. for 20 minutes. The substantially clear aqueous vials are removed from the autoclave and become cloudy upon cooling at ambient conditions. […] F13 comprises dexamethasone and γ-cyclodextrin suspended in pure water. F14 comprises dexamethasone suspended in pure water. The effect of excipients and preparation methods on the formation of 16,17-unsaturated dexamethasone and the dexamethasone enol aldehydes is presented as the fraction (in %) of dexamethasone degraded to form 16,17-unsaturated dexamethasone and the dexamethasone enol aldehydes.
The amount of 16,17-unsaturated dexamethasone and dexamethasone enol aldehydes formed, presented as the fraction (in %) of dexamethasone degraded to form 16,17-unsaturated dexamethasone and dexamethasone enol aldehydes, in aqueous eye drops after no autoclaving (i.e., heating to 121° C. for 20 minutes) once, twice and three times is shown in Table 3. […]

For `O=C(O)Cc1ccccc1Nc1c(Cl)cccc1Cl` [Diclofenac, diclofenac], in series [1], the “effect of γ-cyclodextrin on aqueous diclofenac solutions during autoclaving” value is listed as “intense coloring”.
Turning to `C[C@@H]1C[C@H]2[C@@H]3CCC4=CC(=O)C=C[C@]4(C)[C@@]3(F)[C@@H](O)C[C@]2(C)[C@@]1(O)C(=O)CO` [dexamethasone], the “fraction of dexamethasone degraded to 16,17-unsaturated dexamethasone and dexamethasone enol aldehydes” value (“fraction of dexamethasone degraded” for short) in series [2] (pH 2.5, 0 autoclaving cycles (121° C., 20 min)) was 0.08%; in series [2] (pH 2.5, 1 autoclaving cycle (121° C., 20 min)) it was 1.06%; in series [2] (pH 2.5, 2 autoclaving cycles (121° C., 20 min)), 2.29%; in series [2] (pH 2.5, 3 autoclaving cycles (121° C., 20 min)), 3.12%; in series [2] (pH 4.0, 0 autoclaving cycles (121° C., 20 min)), 0.08%; in series [2] (pH 4.0, 1 autoclaving cycle (121° C., 20 min)) it was 1.14%. The “fraction of dexamethasone degraded” value in series [2] (pH 4.0, 2 autoclaving cycles (121° C., 20 min)) is 2.19%; in series [2] (pH 4.0, 3 autoclaving cycles (121° C., 20 min)), 3.03%; in series [2] (pH 5.5, 0 autoclaving cycles (121° C., 20 min)) it was 0.08%; in series [2] (pH 5.5, 1 autoclaving cycle (121° C., 20 min)) it was 1.22%; in series [2] (pH 5.5, 2 autoclaving cycles (121° C., 20 min)) it was 2.27%; in series [2] (pH 5.5, 3 autoclaving cycles (121° C., 20 min)) it was 3.46%. The “fraction of dexamethasone degraded” value in series [2] (pH 7.0, 0 autoclaving cycles (121° C., 20 min)) came to 0.08%; in series [2] (pH 7.0, 1 autoclaving cycle (121° C., 20 min)) it was 0.86%; in series [2] (pH 7.0, 2 autoclaving cycles (121° C., 20 min)) it was 1.64%; in series [2] (pH 7.0, 3 autoclaving cycles (121° C., 20 min)), 2.57%.
